Assay results taken from US20100298141A1, “SUBSTITUTED PYRIDINE N-OXIDE HERBICIDES” (E. I. DU PONT DE NEMOURS AND COMPANY, priority 2007, published 2010).

Legend:
Test in all cases: Test F preemergence test
Settings in all cases: scale 0 to 100
bermudagrass = assay type: in vivo, Cynodon dactylon
In short: (§1)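 Visual ratings relative to controls, taken after 14 to 21 days in a greenhouse. Test chemicals, formulated in a surfactant-containing non-phytotoxic solvent mixture, were applied preemergence to sown seeds or postemergence to sugarcane plants.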

Surinam grass = assay type: in vivo, Brachiaria decumbens
In short: as §1

large crabgrass = assay type: in vivo, Digitaria sanguinalis
In short: as §1

goosegrass = assay type: in vivo, Eleusine indica
In short: as §1

johnsongrass = assay type: in vivo, Sorghum halepense
In short: as §1

kochia = assay type: in vivo, Kochia scoparia
In short: as §1

pitted morningglory = assay type: in vivo, Ipomoea lacunosa
In short: as §1

common ragweed = assay type: in vivo, Ambrosia elation
In short: as §1

mustard = assay type: in vivo, Brassica nigra
In short: as §1

guineagrass = assay type: in vivo, Panicum maximum
In short: as §1

dallisgrass = assay type: in vivo, Paspalum dilatatum
In short: as §1

barnyardgrass = assay type: in vivo, Echinochloa crus-galli
In short: as §1

prickly sida = assay type: in vivo, Sida spinosa
In short: as §1

Italian ryegrass = assay type: in vivo, Lolium multiflorum
In short: as §1

common purslane = assay type: in vivo, Portulaca oleracea
In short: as §1

broadleaf signalgrass = assay type: in vivo, Brachiaria platyphylla
In short: as §1

common groundsel = assay type: in vivo, Senecio vulgaris
In short: as §1

Virginia dayflower = assay type: in vivo, Commelina virginica
In short: as §1

naked crabgrass = assay type: in vivo, Digitaria nuda
In short: as §1

itchgrass = assay type: in vivo, Rottboellia cochinchinensis
In short: as §1

quackgrass = assay type: in vivo, Elytrigia repens
In short: as §1

Cc1cc[n+]([O-])c([S+]([O-])Cc2c(C(F)(F)F)nn(C)c2Cl)c1 (racemic) [Compound 20]
95: Guineagrass plant response rating (guineagrass; 62 g ai/ha, Preemergence) | Crabgrass, Naked plant response rating (naked crabgrass; 62 g ai/ha, Preemergence)
80: Crabgrass, Large plant response rating (large crabgrass; 62 g ai/ha, Preemergence) | Plant response rating, Barnyardgrass (barnyardgrass; Preemergence, 31 g ai/ha) | Plant response rating, Crabgrass, Naked (naked crabgrass; Preemergence, 31 g ai/ha)
90: Johnsongrass plant response rating (johnsongrass; 62 g ai/ha, Preemergence) | Black Mustard plant response rating (mustard; 62 g ai/ha, Preemergence) | Plant response rating, Guineagrass (guineagrass; Preemergence, 31 g ai/ha) | Barnyardgrass plant response rating (barnyardgrass; 62 g ai/ha, Preemergence)
0: Plant response rating, Surinam Grass (Surinam grass; 8 g ai/ha, preemergence) | Plant response rating, Surinam Grass (Surinam grass; 16 g ai/ha, preemergence) | Plant response rating, Crabgrass, Large (large crabgrass; 8 g ai/ha, preemergence) | Plant response rating, Goosegrass (goosegrass; 8 g ai/ha, preemergence) | Plant response rating, Johnsongrass (johnsongrass; 8 g ai/ha, preemergence) | Plant response rating, Kochia (kochia; 8 g ai/ha, preemergence) | Plant response rating, Kochia (kochia; Preemergence, 16 g ai/ha) | Plant response rating, Kochia (kochia; Preemergence, 31 g ai/ha) | Plant response rating, Morningglory (pitted morningglory; 8 g ai/ha, preemergence) | Plant response rating, Morningglory (pitted morningglory; Preemergence, 16 g ai/ha) | Plant response rating, Ragweed (common ragweed; 8 g ai/ha, preemergence) | Plant response rating, Ragweed (common ragweed; Preemergence, 16 g ai/ha) | Plant response rating, Ragweed (common ragweed; Preemergence, 31 g ai/ha) | Plant response rating, Black Mustard (mustard; 8 g ai/ha, preemergence) | Plant response rating, Guineagrass (guineagrass; 8 g ai/ha, preemergence) | Plant response rating, Guineagrass (guineagrass; Preemergence, 16 g ai/ha) | Plant response rating, Dallisgrass (dallisgrass; 8 g ai/ha, preemergence) | Plant response rating, Dallisgrass (dallisgrass; Preemergence, 16 g ai/ha) | Plant response rating, Barnyardgrass (barnyardgrass; 8 g ai/ha, preemergence) | Plant response rating, Prickly Sida (prickly sida; 8 g ai/ha, preemergence) | Plant response rating, Prickly Sida (prickly sida; Preemergence, 16 g ai/ha) | Plant response rating, Ryegrass, Italian (Italian ryegrass; 8 g ai/ha, preemergence) | Plant response rating, Purslane (common purslane; 8 g ai/ha, preemergence) | Plant response rating, Groundsel (common groundsel; 8 g ai/ha, preemergence) | Groundsel plant response rating (common groundsel; 62 g ai/ha, Preemergence) | Plant response rating, Groundsel (common groundsel; Preemergence, 16 g ai/ha) | Plant response rating, Groundsel (common groundsel; Preemergence, 31 g ai/ha) | Plant response rating, Dayflower (Virginia dayflower; 8 g ai/ha, preemergence) | Plant response rating, Dayflower (Virginia dayflower; Preemergence, 16 g ai/ha) | Plant response rating, Dayflower (Virginia dayflower; Preemergence, 31 g ai/ha) | Plant response rating, Itchgrass (itchgrass; 8 g ai/ha, preemergence) | Plant response rating, Itchgrass (itchgrass; Preemergence, 16 g ai/ha) | Plant response rating, Quackgrass (quackgrass; 8 g ai/ha, preemergence) | Plant response rating, Quackgrass (quackgrass; Preemergence, 16 g ai/ha) | Plant response rating, Quackgrass (quackgrass; Preemergence, 31 g ai/ha)
10: Plant response rating, Crabgrass, Large (large crabgrass; Preemergence, 16 g ai/ha) | Plant response rating, Ryegrass, Italian (Italian ryegrass; Preemergence, 16 g ai/ha)
50: Bermudagrass plant response rating (bermudagrass; 62 g ai/ha, Preemergence) | Plant response rating, Bermudagrass (bermudagrass; Preemergence, 31 g ai/ha) | Plant response rating, Johnsongrass (johnsongrass; Preemergence, 16 g ai/ha) | Kochia plant response rating (kochia; 62 g ai/ha, Preemergence) | Plant response rating, Black Mustard (mustard; Preemergence, 16 g ai/ha) | Plant response rating, Signalgrass (broadleaf signalgrass; 8 g ai/ha, preemergence)
25: Ragweed plant response rating (common ragweed; 62 g ai/ha, Preemergence) | Purslane plant response rating (common purslane; 62 g ai/ha, Preemergence)
75: Goosegrass plant response rating (goosegrass; 62 g ai/ha, Preemergence) | Dallisgrass plant response rating (dallisgrass; 62 g ai/ha, Preemergence) | Signalgrass plant response rating (broadleaf signalgrass; 62 g ai/ha, Preemergence) | Plant response rating, Crabgrass, Naked (naked crabgrass; 8 g ai/ha, preemergence) | Plant response rating, Crabgrass, Naked (naked crabgrass; Preemergence, 16 g ai/ha)
70: Plant response rating, Crabgrass, Large (large crabgrass; Preemergence, 31 g ai/ha) | Itchgrass plant response rating (itchgrass; 62 g ai/ha, Preemergence)
15: Plant response rating, Bermudagrass (bermudagrass; 8 g ai/ha, preemergence) | Plant response rating, Goosegrass (goosegrass; Preemergence, 16 g ai/ha) | Plant response rating, Morningglory (pitted morningglory; Preemergence, 31 g ai/ha) | Plant response rating, Purslane (common purslane; Preemergence, 16 g ai/ha) | Plant response rating, Purslane (common purslane; Preemergence, 31 g ai/ha) | Plant response rating, Itchgrass (itchgrass; Preemergence, 31 g ai/ha)
35: Plant response rating, Ryegrass, Italian (Italian ryegrass; Preemergence, 31 g ai/ha) | Plant response rating, Signalgrass (broadleaf signalgrass; 16 g ai/ha, preemergence)
60: Plant response rating, Surinam Grass (Surinam grass; Preemergence, 31 g ai/ha) | Plant response rating, Goosegrass (goosegrass; Preemergence, 31 g ai/ha) | Plant response rating, Johnsongrass (johnsongrass; Preemergence, 31 g ai/ha) | Plant response rating, Black Mustard (mustard; Preemergence, 31 g ai/ha) | Prickly Sida plant response rating (prickly sida; 62 g ai/ha, Preemergence) | Dayflower plant response rating (Virginia dayflower; 62 g ai/ha, Preemergence) | Quackgrass plant response rating (quackgrass; 62 g ai/ha, Preemergence)
65: Surinam Grass plant response rating (Surinam grass; 62 g ai/ha, Preemergence) | Ryegrass, Italian plant response rating (Italian ryegrass; 62 g ai/ha, Preemergence) | Plant response rating, Signalgrass (broadleaf signalgrass; Preemergence, 31 g ai/ha)
40: Morningglory plant response rating (pitted morningglory; 62 g ai/ha, Preemergence) | Plant response rating, Barnyardgrass (barnyardgrass; Preemergence, 16 g ai/ha)
20: Plant response rating, Bermudagrass (bermudagrass; Preemergence, 16 g ai/ha) | Plant response rating, Dallisgrass (dallisgrass; Preemergence, 31 g ai/ha) | Plant response rating, Prickly Sida (prickly sida; Preemergence, 31 g ai/ha)
